# “Also recorded” adds a separate entry of the source.
# Legend:
# Assay type in all cases: cell-based, murine
# 3T3-L1 cells [1] = assay: G418 selection kill level; details: 600 μg/ml G418 over two weeks
# Protocol: 600 μg/ml is enough G418 to kill 100% 3T3-L1 cells over 2 weeks. Thus the levels used clearly distinguish between cells that incorporated G418 resistance (within the expression plasmid used) into their genomes and cells lacking this marker. A few passages after G418 release stable populations should recover and fill the plate.
# The Fugene6 protocol was then used again for preparation of 12Lo antisense knockout and control clones together with the G418 selection marker as G418 resistance was built in to the pCDNA3.1 plasmid (see FIGS. 2A-2D). It was herein determined that 600 μg/ml G418 killed 100% of 3T3-L1 cells over two weeks. So on transfection of cells and selection with 650 μg/ml G418 over three weeks only those cells expressing strong […] resistance would survive and grow. Following three weeks of selection G418 release was gradual over the next 1-2 weeks.
# 3T3-L1 cells [2] = assay: DNA fragmentation (Roche Cell Death Detection ELISA) in stable knockout populations and clones; details: 10^−7M
# Protocol: DNA Fragmentation (ELISA method): Apoptopic cells show hallmark random DNA fragmentation between nucleosomes. The “Cell Death Detection ELISA” format by Roche (Mannheim, Germany) was used in the following examples. Culture treatments and controls were performed for the tested period and after counting the cells and washing them twice with PBS, 250,000 cells/aliquot were prepared and stored dry at −180° C. until assay. Multiple replicates were usually prepared for assay together on the same day in the same kit. Assay was carried out exactly as described by the manufacturer on 250,000 cells/aliquot.
# One hallmark of apoptosis is DNA fragmentation. In the current studies the Roche (Mannheim, Germany) version of this assay was used in the format of an ELISA assay, which measures released intact DNA/Histone-nucleosomes. The results are presented as antisense knockout levels normalized to parallel control values. In the experiment shown in FIGS. 10A-10B, populations of 3T3-L1 cells with either of the two 12Lo antisense knockout plasmids (“mp”-pCMV5′mp12Lo(Pst1)-A; “600a”-pcDNAh60012LoA) versus controls (“Con”) were directly compared: cell death versus relative DNA fragmentation.
# To further validate the mechanism of cell death the Roche Cell Death kit was applied as a measure of DNA fragmentation, which is a classic apoptopic hallmark. […]
# 3T3-L1 stable cell lines = assay: Necrosis by lactate dehydrogenase (LDH) release
# Protocol: Lactate Dehydrogenase Release (LDH): Necrotic cells release their cytoplasmic contents into the surrounding medium. In recent years the measurement of one such stable enzyme, LDH, has become a standard laboratory marker of necrosis (Goeptar et al., 1994; Moran et al., 1996). Cell cultures and treatments tested for LDH release had their supernatants collected, centrifuged (1,100×g, 5 minutes; to remove particulate debris) and supernatants tested automatically in a centralized facility (in-house) by method of Moran and Schnellmann (Moran et al., 1996), 1996. In each study a positive control for LDH release was a 1/5000 dilution of triton X100 directly into the cell culture, for the period of the bioassay. Negative control was medium without cells.
# Cell death can occur as a result of different processes: apoptosis, which is a very programmed process, as well as other less programmed mechanisms such as necrosis. […] In recent years, investigators have been measuring the release of lactate dehydrogenase (LDH) from cells as a measure of cellular necrosis. The contribution of necrosis in the cell death of the 12Lo reduced expressing clones was thus examined by comparing LDH release from control and pCMV600a 12Lo antisense knockout stable preadipocyte cell lines grown in the presence or absence of 12-HETE. In FIG. 15, typical data of such a study is presented.
# 3T3-L1 cells [3] = assay: Basal cell death of stable 12Lo antisense knockout populations and clones (trypan blue)
Compound,3T3-L1 cells killed (3T3-L1 cells [1]),effect of 12-HETE on DNA fragmentation levels (3T3-L1 cells [2]; each of the pCMV600a clonal stable lines),DNA fragmentation level on supplemented 12-HETE (3T3-L1 cells [2]; pCMV600a clone 10),effect of 12-HETE on cell necrosis (LDH release) (3T3-L1 stable cell lines),effect of added 12-HETE on cell death of 12Lo antisense knockout clones (3T3-L1 cells [3]; 12-HETE 10^−7 M),"effect of 12-HETE on cell survival of control clone (3T3-L1 cells [3]; pCMVCAT stably transfected 3T3-L1 cells, 10^−7M)"
CN[C@@H]1[C@@H](O)[C@@H](O[C@@H]2[C@@H](O)[C@H](O[C@H]3O[C@H]([C@@H](C)O)[C@@H](O)[C@H](O)[C@H]3N)[C@@H](N)C[C@H]2N)OC[C@]1(C)O [G418],100%,–,–,–,–,–
"CCCCC/C=C\C[C@@H](O)/C=C/C=C\C/C=C\CCCC(=O)O [12-HETE, 12 hydroxyeicosatetraenoic acid]",–,reduced the DNA fragmentation levels,nearly “normal” (or control) levels,no effect,much less cell death; also recorded: encouraged cell survival,no effect

# Reference: patent publication US20170327827A1, “ADIPOCYTE-SPECIFIC CONSTRUCTS AND METHODS FOR INHIBITING PLATELET-TYPE 12 LIPOXYGENASE EXPRESSION” (The Medical Research, Infrastructure, and Health Services …, priority 2006, published 2017)
